{"source": "paper PMC6685790", "about": "(Nature structural & molecular biology, 2008)", "biological_target": "T1, GlyR α1 WT (Homo sapiens, UniProt P23415)", "T1 sequence (P23415 29-457)": "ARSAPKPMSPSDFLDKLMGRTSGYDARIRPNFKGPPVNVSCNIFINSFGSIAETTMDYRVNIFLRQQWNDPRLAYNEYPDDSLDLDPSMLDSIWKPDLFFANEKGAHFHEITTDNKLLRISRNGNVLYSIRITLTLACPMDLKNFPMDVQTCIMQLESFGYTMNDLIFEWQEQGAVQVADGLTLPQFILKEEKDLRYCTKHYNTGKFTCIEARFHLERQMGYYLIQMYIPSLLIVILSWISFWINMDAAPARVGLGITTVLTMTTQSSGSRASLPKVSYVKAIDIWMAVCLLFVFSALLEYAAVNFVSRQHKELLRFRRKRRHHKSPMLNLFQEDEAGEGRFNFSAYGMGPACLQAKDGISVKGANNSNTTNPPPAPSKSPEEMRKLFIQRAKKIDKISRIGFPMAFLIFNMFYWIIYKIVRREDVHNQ", "experiment": "Cell-attached single-channel recording of wild-type GlyR α1 in HEK 293 cells", "type": "cell-based"}
{"smiles": "NCC(=O)O", "note": "[Glycine, glycine]", "values": [{"measurement": "Burst durations Area, component 1", "setting": "α1 WT +30 μM Gly", "result": "28 ± 7", "unit": "%"}, {"measurement": "Burst durations Area, component 2", "setting": "α1 WT +30 μM Gly", "result": "22 ± 4", "unit": "%"}, {"measurement": "Burst durations Area, component 3", "setting": "α1 WT +30 μM Gly", "result": "35 ± 5", "unit": "%"}, {"measurement": "Burst durations Area, component 4", "setting": "α1 WT +30 μM Gly", "result": "19 ± 7", "unit": "%"}, {"measurement": "Burst durations τB, component 1", "setting": "α1 WT +30 μM Gly", "result": "0.3 ± 0.06", "unit": "ms"}, {"measurement": "Burst durations τB, component 2", "setting": "α1 WT +30 μM Gly", "result": "1.4 ± 0.6", "unit": "ms"}, {"measurement": "Burst durations τB, component 3", "setting": "α1 WT +30 μM Gly", "result": "6.9 ± 2.2", "unit": "ms"}, {"measurement": "Burst durations τB, component 4", "setting": "α1 WT +30 μM Gly", "result": "63.4 ± 14.8", "unit": "ms"}, {"measurement": "Closed times Area, component 1", "setting": "α1 WT +30 μM Gly", "result": "44 ± 16", "unit": "%"}, {"measurement": "Closed times Area, component 2", "setting": "α1 WT +30 μM Gly", "result": "35 ± 15", "unit": "%"}, {"measurement": "Closed times Area, component 3", "setting": "α1 WT +30 μM Gly", "result": "8 ± 1", "unit": "%"}, {"measurement": "Closed times Area, component 4", "setting": "α1 WT +30 μM Gly", "result": "10 ± 2", "unit": "%"}, {"measurement": "Closed times Area, component 5", "setting": "α1 WT +30 μM Gly", "result": "4 ± 1", "unit": "%"}, {"measurement": "Closed times τC, component 1", "setting": "α1 WT +30 μM Gly", "result": "0.22 ± 0.03", "unit": "ms"}, {"measurement": "Closed times τC, component 2", "setting": "α1 WT +30 μM Gly", "result": "0.90 ± 0.24", "unit": "ms"}, {"measurement": "Closed times τC, component 3", "setting": "α1 WT +30 μM Gly", "result": "4.3 ± 1.6", "unit": "ms"}, {"measurement": "Closed times τC, component 4", "setting": "α1 WT +30 μM Gly", "result": "109 ± 6.2", "unit": "ms"}, {"measurement": "Closed times τC, component 5", "setting": "α1 WT +30 μM Gly", "result": "2200 ± 1000", "unit": "ms"}, {"measurement": "Open times Area, component 1", "setting": "α1 WT +30 μM Gly", "result": "36 ± 11", "unit": "%"}, {"measurement": "Open times Area, component 2", "setting": "α1 WT +30 μM Gly", "result": "39 ± 3", "unit": "%"}, {"measurement": "Open times Area, component 3", "setting": "α1 WT +30 μM Gly", "result": "26 ± 10", "unit": "%"}, {"measurement": "Open times τO, component 2", "setting": "α1 WT +30 μM Gly", "result": "1.5 ± 0.2", "unit": "ms"}, {"measurement": "Open times τO, component 3", "setting": "α1 WT +30 μM Gly", "result": "8.9 ± 2.1", "unit": "ms"}, {"measurement": "Open times τO, component 1", "setting": "α1 WT +30 μM Gly, +60 mV pipette potential", "result": "0.28 ± 0.029", "unit": "ms"}, {"measurement": "Estimated single channel conductance", "setting": "α1 WT activated by glycine", "result": "~ 60 pS"}, {"measurement": "PO (open probability within clusters/bursts)", "setting": "α1 WT activated by glycine", "result": "0.9 ± 0.03"}, {"measurement": "Single channel Amplitude", "setting": "α1 WT activated by glycine, +60 mV pipette potential", "result": "4 – 5 pA"}, {"measurement": "Single channel Amplitude", "setting": "α1 WT activated by glycine, +60 mV pipette potential, listed as Gly", "result": "4.5 ± 0.7", "unit": "pA"}]}
